Data from ChEMBL document CHEMBL5053549, “Discovery of Potent and Novel Dual PARP/BRD4 Inhibitors for Efficient Treatment of Pancreatic Cancer” (J Med Chem, 2021).
The source made the active and inactive calls. The rule behind the calls is not given here.

Tests used:
SW1990 [1] = experiment: Induction of cell cycle arrest in human SW1990 cells assessed as accumulation of cells at G0/G1 phase at 1 uM incubated for 4 days in presence of 3 uM Olaparib by propidium iodide staining based flow cytometry (reference value: 64.79%); format: functional; details: time 4 day
SW1990 [2] = experiment: Effect on cell cycle progression in human SW1990 cells assessed as reduction in Olaparib-induced CDK6 expression at 1 uM after 4 days in presence of Olaparib by Q-PCR analysis; format: functional, cell-based; details: time 4.0 day
Mus musculus [3] = experiment: Toxicity in BALB/c mouse xenografted with human SW1990 cells assessed as spleen damage at 15 mg/kg, ip administered for 28 consecutive days in presence of 45 mg/kg Olaparib; format: organism-based; details: in vivo, 672 h, time 28 day
SW1990 [4] = experiment: Induction of apoptosis in human SW1990 cells assessed as late apoptotic cells at 4 uM after 4 days by Annexin V-FITC and propidium iodide staining based flow cytometry (reference value: 6.22%); format: functional; details: time 4 day
Mus musculus [5] = experiment: Toxicity in BALB/c mouse xenografted with human SW1990 cells assessed as liver damage at 15 mg/kg, ip administered for 28 consecutive days in presence of 45 mg/kg Olaparib; format: organism-based; details: in vivo, 672 h, time 28 day
[6] = molecular target: Poly [ADP-ribose] polymerase 1 (Homo sapiens, UniProt P09874); experiment: Inhibition of PARP1 in human SW1990 cells assessed as reversal of Olaparib-induced PARP1 accumulation in nucleus at 1 uM after 4 days by Western blot analysis; format: cell-based; details: time 4.0 day
Chain of Poly [ADP-ribose] polymerase 1 (P09874 whole entry): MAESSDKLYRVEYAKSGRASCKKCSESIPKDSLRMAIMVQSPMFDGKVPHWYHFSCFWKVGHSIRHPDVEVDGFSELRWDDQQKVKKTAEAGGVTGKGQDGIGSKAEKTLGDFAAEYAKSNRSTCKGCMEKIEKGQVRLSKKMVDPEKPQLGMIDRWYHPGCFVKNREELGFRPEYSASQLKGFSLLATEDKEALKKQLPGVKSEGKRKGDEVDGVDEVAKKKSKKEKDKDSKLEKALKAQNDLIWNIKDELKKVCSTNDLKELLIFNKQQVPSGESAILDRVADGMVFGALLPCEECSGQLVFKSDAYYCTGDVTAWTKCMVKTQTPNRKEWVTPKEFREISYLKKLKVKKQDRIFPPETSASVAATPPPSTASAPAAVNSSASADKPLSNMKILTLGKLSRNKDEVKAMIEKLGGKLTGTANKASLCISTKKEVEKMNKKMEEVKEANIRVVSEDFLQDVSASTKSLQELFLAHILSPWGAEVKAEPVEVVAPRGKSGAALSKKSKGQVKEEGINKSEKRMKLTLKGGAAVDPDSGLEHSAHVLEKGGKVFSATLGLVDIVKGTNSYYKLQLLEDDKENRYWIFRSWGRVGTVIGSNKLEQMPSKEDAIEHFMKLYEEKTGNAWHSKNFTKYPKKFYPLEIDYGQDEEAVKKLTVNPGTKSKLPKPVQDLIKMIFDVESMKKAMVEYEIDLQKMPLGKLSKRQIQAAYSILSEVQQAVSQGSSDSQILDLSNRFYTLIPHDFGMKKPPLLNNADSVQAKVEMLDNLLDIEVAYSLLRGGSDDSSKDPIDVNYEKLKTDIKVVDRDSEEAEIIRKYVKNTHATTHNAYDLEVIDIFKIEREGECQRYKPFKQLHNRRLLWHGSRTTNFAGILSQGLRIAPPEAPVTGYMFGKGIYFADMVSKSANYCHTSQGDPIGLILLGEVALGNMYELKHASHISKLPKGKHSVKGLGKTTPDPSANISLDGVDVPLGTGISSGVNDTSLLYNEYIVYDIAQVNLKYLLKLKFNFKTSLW

Mus musculus [7] = experiment: Toxicity in BALB/c mouse xenografted with human SW1990 cells assessed as lung damage at 15 mg/kg, ip administered for 28 consecutive days in presence of 45 mg/kg Olaparib; format: organism-based; details: in vivo, 672 h, time 28 day
Mus musculus [8] = experiment: Toxicity in BALB/c mouse xenografted with human SW1990 cells assessed as spleen damage at 15 mg/kg, ip administered for 28 consecutive days by H and E staining based […] microscopic analysis; format: organism-based; details: in vivo, 672 h, time 28 day
SW1990 [9] = experiment: Induction of cell cycle arrest in human SW1990 cells assessed as accumulation of cells at S phase at 1 uM incubated for 4 days in presence of 3 uM Olaparib by propidium iodide staining based flow cytometry (reference value: 29.32%); format: functional; details: time 4 day
Mus musculus [10] = experiment: In vivo inhibition of PARP1 expression in human […] cells xenografted in BALB/c mouse at 45 mg/kg, ip administered for 28 consecutive days by immunohistochemical analysis; format: functional, organism-based; details: time 28.0 day
SW1990 [11] = experiment: Inhibition of homologous recombinant repair in human SW1990 cells assessed as reduction in Rad51 expression at 1 to 2 uM after 4 days by Q-PCR analysis; format: functional, cell-based; details: dose 1-2 µM, time 4.0 day
SW1990 [12] = experiment: Induction of cell cycle arrest in human SW1990 cells assessed as accumulation of cells at G2/M phase at 2 uM incubated for 4 days by propidium iodide staining based flow cytometry (reference value: 5.89%); format: functional; details: time 4 day
SW1990 [13] = experiment: Inhibition of homologous recombinant repair in human SW1990 cells assessed as reduction in BRCA1 expression at 1 to 2 uM after 4 days by Western blot analysis; format: functional, cell-based; details: dose 1-2 µM, time 4.0 day
Mus musculus [14] = experiment: Effect on cell cycle progression in human SW1990 cells xenografted in BALB/c mouse assessed as reduction in E2F2 expression at 45 mg/kg, ip after 4 days by Western blot analysis; format: functional, organism-based; details: time 4.0 day
SW1990 [15] = experiment: Effect on cell cycle progression in human SW1990 cells assessed as reduction in E2F2 expression at 1 to 2 uM after 4 days by Western blot analysis; format: functional, cell-based; details: dose 1-2 µM, time 4.0 day
Mus musculus [16] = experiment: Effect on cell cycle progression in human SW1990 cells xenografted in BALB/c mouse assessed as reduction in PLK1 expression at 45 mg/kg, ip after 4 days by Western blot analysis; format: functional, organism-based; details: time 4.0 day
SW1990 [17] = experiment: Induction of apoptosis in human SW1990 cells assessed as late apoptotic cells at 1 uM after 4 days by Annexin V-FITC and propidium iodide staining based flow cytometry (reference value: 6.22%); format: functional; details: time 4 day
Mus musculus [18] = experiment: Inhibition of homologous recombinant repair in human SW1990 cells xenografted in BALB/c mouse assessed as reduction in olaparib-induced FOXM1 expression at 15 mg/kg, ip after 4 days by immunohistochemical analysis; format: functional, organism-based; details: time 4.0 day
SW1990 [19] = experiment: Induction of autophagy in human SW1990 cells xenografted in BALB/c mouse assessed as increase in beclin1 expression at 45 mg/kg, ip after 4 days by Western blot analysis; format: functional, organism-based; details: time 4.0 day
Mus musculus [20] = experiment: In vivo inhibition of BRD4 expression in human […] cells xenografted in BALB/c mouse at 45 mg/kg, ip administered for 28 consecutive days by immunohistochemical analysis; format: functional, organism-based; details: time 28.0 day
Mus musculus [21] = experiment: Inhibition of homologous recombinant repair in human SW1990 cells xenografted in BALB/c mouse assessed as reduction in FOXM1 expression at 45 mg/kg, ip after 4 days by immunohistochemical analysis; format: functional, organism-based; details: time 4.0 day
SW1990 [22] = experiment: Induction of apoptosis in human SW1990 cells assessed as necrotic cells at 2 uM after 4 days by Annexin V-FITC and propidium iodide staining based flow cytometry (reference value: 1.89%); format: functional; details: time 4 day
[23] = molecular target: Bromodomain testis-specific protein (Homo sapiens, UniProt Q58F21); experiment: Inhibition of recombinant BRDT BD1 (unknown origin) incubated for 120 mins by TR-FRET assay
SW1990 [24] = experiment: Inhibition of homologous recombinant repair in human SW1990 cells assessed as reduction in c-Myc expression at 1 to 2 uM after 4 days by Q-PCR analysis; format: functional, cell-based; details: dose 1-2 µM, time 4.0 day
SW1990 [25] = experiment: Effect on cell cycle progression in human SW1990 cells assessed as reduction in CCND1 expression at 1 to 2 uM after 4 days by Western blot analysis; format: functional, cell-based; details: dose 1-2 µM, time 4.0 day
SW1990 [26] = experiment: Effect on cell cycle progression in human SW1990 cells assessed as reduction in PLK1 expression at 1 to 2 uM after 4 days by Western blot analysis; format: functional, cell-based; details: dose 1-2 µM, time 4.0 day
[27] = molecular target: Poly [ADP-ribose] polymerase 2 (Homo sapiens, UniProt Q9UGN5); experiment: Inhibition of recombinant PARP2 (unknown origin) incubated for 45 mins in presence of biotinylated-NAD+ by ELISA
Chain of Poly [ADP-ribose] polymerase 2 (Q9UGN5 whole entry): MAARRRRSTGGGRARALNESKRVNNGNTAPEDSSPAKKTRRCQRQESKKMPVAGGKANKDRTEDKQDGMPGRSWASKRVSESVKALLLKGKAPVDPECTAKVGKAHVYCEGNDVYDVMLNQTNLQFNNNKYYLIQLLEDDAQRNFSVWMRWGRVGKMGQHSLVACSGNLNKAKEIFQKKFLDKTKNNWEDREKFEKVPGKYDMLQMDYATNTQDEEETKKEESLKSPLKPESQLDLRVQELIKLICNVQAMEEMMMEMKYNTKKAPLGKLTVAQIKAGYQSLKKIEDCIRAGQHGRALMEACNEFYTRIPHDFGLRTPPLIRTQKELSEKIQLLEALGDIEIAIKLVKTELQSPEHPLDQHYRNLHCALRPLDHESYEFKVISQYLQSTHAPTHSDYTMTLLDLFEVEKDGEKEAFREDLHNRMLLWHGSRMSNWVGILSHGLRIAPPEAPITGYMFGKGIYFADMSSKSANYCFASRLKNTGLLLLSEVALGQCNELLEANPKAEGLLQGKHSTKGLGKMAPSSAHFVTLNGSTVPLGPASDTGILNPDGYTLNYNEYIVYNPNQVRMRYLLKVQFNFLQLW

Mus musculus [28] = experiment: In vivo inhibition of BRD4 expression in human […] cells xenografted in BALB/c mouse at 45 mg/kg, ip administered for 28 consecutive days by Western blot analysis; format: functional, organism-based; details: time 28.0 day
Mus musculus [29] = experiment: Toxicity in BALB/c mouse xenografted with human SW1990 cells assessed as liver damage at 45 mg/kg, ip administered for 28 consecutive days by H and E staining based […] microscopic analysis; format: organism-based; details: in vivo, 672 h, time 28 day
Mus musculus [30] = experiment: Toxicity in BALB/c mouse xenografted with human SW1990 cells assessed as kidney damage at 45 mg/kg, ip administered for 28 consecutive days by H and E staining based […] microscopic analysis; format: organism-based; details: in vivo, 672 h, time 28 day
SW1990 [31] = experiment: Induction of DNA damage in human SW1990 cells assessed as increase in gammaH2AX at 1 to 2 uM incubated for 4 days by immunofluorescence assay; format: functional, cell-based; details: dose 1-2 µM, time 4.0 day
Mus musculus [32] = experiment: Effect on cell cycle progression in human SW1990 cells xenografted in BALB/c mouse assessed as reduction in CDK6 expression at 45 mg/kg, ip after 4 days by Western blot analysis; format: functional, organism-based; details: time 4.0 day
SW1990 [33] = experiment: Inhibition of homologous recombinant repair in human SW1990 cells assessed as reduction in BRCA1 expression at 1 to 2 uM after 4 days by Q-PCR analysis; format: functional, cell-based; details: dose 1-2 µM, time 4.0 day

Cc1sc2c(c1C)C(c1ccc(Cl)cc1)=N[C@@H](CC(=O)OC(C)(C)C)c1nnc(C)n1-2
Activity (SW1990 [1]): 71.53%
Activity (SW1990 [2]): Active
Activity (Mus musculus [3]): Non-Toxic
Activity (SW1990 [4]): 25.5%
Activity (Mus musculus [5]): Non-Toxic
inhibition [6]: Active
Activity (Mus musculus [7]): Non-Toxic
Activity (Mus musculus [8]): Non-Toxic
Activity (SW1990 [9]): 19.33%

CC[C@@H]1C(=O)N(C)c2cnc(N(C)c3ccc(-c4nc5c(C(N)=O)cccc5[nH]4)cc3OC)nc2N1C1CCCC1
Activity (Mus musculus [10]): Active
inhibition (SW1990 [11]): Active
Activity (SW1990 [12]): 13.22%
inhibition (SW1990 [13]): Active
Activity (Mus musculus [14]): Active
Activity (SW1990 [15]): Active
Activity (Mus musculus [16]): Active
Activity (SW1990 [17]): 28.4%
inhibition (Mus musculus [18]): Active
Activity (SW1990 [19]): Active
Activity (Mus musculus [20]): Active
inhibition (Mus musculus [21]): Active
Activity (SW1990 [22]): 4.56%
IC50 [23]: 1200 nM
inhibition (SW1990 [24]): Active
Activity (SW1990 [25]): Active
Activity (SW1990 [26]): Active
IC50 [27]: 4.7 nM
Activity (Mus musculus [28]): Active
Activity (Mus musculus [29]): Non-Toxic
Activity (Mus musculus [30]): Non-Toxic
Activity (SW1990 [31]): Active
Activity (Mus musculus [32]): Active
inhibition (SW1990 [33]): Active
